Patent US10830772B2, “Detection method and kit” (The European Union, represented by the European Commission, priority 2015, dated 2020)

Tested on: AhR2 from zebrafish
Assay: Fluorescence binding of the ligand probe to recombinant AhR protein (excitation 280 nm, emission 450 nm)
Text: The inventors expressed the encoding gene sequence for the AhR2 from zebrafish in Escherichia coli cells to produce the high yield of a 600 amino acid recombinant protein. The protein was purified by using Histidine tag affinity column. The protocol used allowed to obtain a good yield of pure protein that is correctly folded.
The inventors developed an assay for the Aryl Hydrocarbon Receptor binding activity as an alternative to known methods and investigated which molecules are the most suitable for building a competitive binding assay as in vitro ligands, and to make these molecules fluorescent or more fluorescent. […] The same concentration of ethyl 5,11-dihydroindolo[3,2-b]carbazole-6-carboxylate in aqueous buffer environment has a very low fluorescence signal (FIG. 1, bottom line at 328 nm). […] Indeed if ethyl 5,11-dihydroindolo[3,2-b]carbazole-6-carboxylate is a ligand of AhR it moves from an aqueous environment (buffer) to a more hydrophobic environment (hydrophobic internal binding site of the AhR receptor), causing the increase in fluorescence emission at 450 nm.

`CCOC(=O)c1c2[nH]c3ccccc3c2cc2[nH]c3ccccc3c12` [ethyl 5,11-dihydroindolo[3,2-b]carbazole-6-carboxylate] was tested, and the “fluorescence emission on addition to the AhR (binding into the active site)” value (excited at 280 nm, buffer environment, FIG. 1) was “causes the appearance of an emission peak with maximum at 450 nm” and the “binding affinity to AhR” value (result in words, suitability for competitive binding assays) was “high enough to allow the competition of other compounds to the receptor, yet not too high”.
